According to PubChem BioAssay (NCI):
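Growth conditions: 96-well plates. Treatment: test compound, 48 hours, 5 concentrations. Analysis: linear interpolation between bracketing concentrations; unreached endpoints set to highest concentration. GI50 marks 50% less growth. TGI denotes the concentration required for complete inhibition of growth.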

Legend:
Test in all cases: inhibition of tumour cell growth, NCI panel, 48 h
[1] = system: 786-0 renal
[2] = system: HOP-62 NSCLC
[3] = system: KM12 colon
[4] = system: NCI/ADR-RES ovarian
[5] = system: OVCAR-5 ovarian
[6] = system: RPMI-8226 leukemia
[7] = system: SF-268 CNS
[8] = system: SK-MEL-2 melanoma
[9] = system: T-47D breast
[10] = system: UACC-257 melanoma

Structure (SMILES) | GI50 [1] [µM] | TGI [1] [µM] | GI50 [2] [µM] | TGI [2] [µM] | GI50 [3] [µM] | TGI [3] [µM] | GI50 [4] [µM] | TGI [4] [µM] | GI50 [5] [µM] | TGI [5] [µM] | GI50 [6] [µM] | TGI [6] [µM] | GI50 [7] [µM] | TGI [7] [µM] | GI50 [8] [µM] | TGI [8] [µM] | GI50 [9] [µM] | TGI [9] [µM] | GI50 [10] [µM] | TGI [10] [µM]
CC1=C(C(=O)Nc2ccc(Cl)c(Cl)c2)C(c2cccc(Cl)c2)NC(=O)N1 (configuration not stated) | 10.2 | 28.3 | 10.4 | 20.5 | 0.239 | 2.48 | 13.3 | 33.5 | 11.2 | 30.9 | > 17 | > 30.1 | 7.85 | 17.4 | 9.95 | 19.3 | 19.2 | > 50 | 12.2 | 25.6
CCC(=O)Nc1ccccc1C#C/C=C\C#Cc1ccccc1SC | 33.6 | > 100 | 10 | > 100 | 5.27 | > 100 | 5.15 | 65.2 | 33.3 | > 100 | 1.26 | 11.7 | 12.3 | > 100 | 0.0742 | 3.83 | 8.96 | > 100 | 12.1 | 59.2
CCOC(=O)NC1C2CC(=O)OC(O2)C1OC(C)=O (configuration not stated) |  | > 100 |  | > 100 |  | > 100 | > 100 | > 100 |  | > 100 |  | > 100 |  | > 100 |  | > 100 | > 100 | > 100 |  | > 100
C=C1C(=O)O[C@H]2[C@H]1CC/C(COC(=O)C(=O)c1cn(C)c3ccc(Cl)cc13)=C\CC[C@@]1(C)O[C@@H]21 | 1.2 | 2.53 | 1.33 | 3.02 | 2.48 | 7.46 | 1.45 | 4.7 | 1.91 | 5.82 | 0.306 | 1.19 | 1.56 | 4.56 | 1.39 | 3.61 | 1.46 | 3.27 | 1.65 | 3.55
c1ccc2c(NCCCCCCNc3c4ccccc4nc4ccccc34)c3ccccc3nc2c1 |  | 2.08 |  | 2.21 |  | 1.81 |  | 64.2 |  | 2.71 |  | 0.25 |  | 2.71 |  | 2.75 |  | 12.5 |  | 8.28
CC(=C/C=C/C=C(C)\C=C\C=C(\C)C(=O)O)/C=C/C=C(/C)C(=O)O |  | > 100 |  | > 100 |  | > 100 |  | > 100 |  | > 100 |  | > 100 |  | > 100 |  | > 100 |  | > 100 |  | > 100
O=c1cc(N2CCN(CCCCCOc3cc(O)c4c(=O)cc(-c5ccccc5)oc4c3)CC2)c2ccccc2o1 | 6.92 | > 100 | > 100 | > 100 | 77.8 | > 100 | 74.2 | > 100 | > 100 | > 100 | 12.4 | > 100 | > 100 | > 100 | > 100 | > 100 | > 100 | > 100 | > 100 | > 100
COc1cc2c(cc1OC)-c1ccc3cc4c(cc3c1N(CCCn1ccnc1)C2)OCO4 | 6.04 | 32.8 | 2.03 | 13.6 | 6.05 | 31.8 | > 100 | > 100 | 16.4 | 69.9 | 1.31 | 5.62 | 0.514 | 53.4 | 3.02 | 8.73 | 0.358 | 4.27 | 5.9 | 23.3
O=C1O/C(=C\c2ccccc2)N(c2ccccc2)C1=O |  | > 100 |  | > 100 |  | > 100 |  | > 100 |  | > 100 |  | > 100 |  | > 100 |  | > 100 |  | > 100 |  | > 100
C=C1C(=O)O[C@H]2[C@H]1CC/C(COC(=O)c1cc3ccccc3o1)=C\CC[C@@]1(C)O[C@@H]21 | 1.81 | 3.45 | 2.48 | 7.07 | 2.02 | 4.61 | 2.59 | 10.1 | 1.88 | 3.75 | 0.715 | 3.44 | 1.56 | 3.27 | 1.77 | 3.81 | 1.35 | 3.32 | 1.52 | 3.04
Cc1ccc(Cc2cnc(NC(=O)/C=C/c3cccc(C)c3)s2)cc1 | 0.389 | 4.04 | 0.238 | 9.3 | 0.14 | > 48.4 | 0.135 | 2.06 | 0.492 | > 70.8 | 0.175 | 10.5 | 1.85 | > 100 | 1.68 | > 100 | 0.577 | > 100 | > 42.3 | > 100
CS(=O)(=O)CCNCc1ccc(-c2ccc3ncnc(Nc4ccc(OCc5ccccc5)c(Br)c4)c3c2)o1 | 4.69 | 10.2 | 11.2 | > 25 | 9.06 | > 25 | 6.87 | > 25 | 7.05 | > 25 | 8.67 | > 24.1 | 10.7 | > 25 | 6.5 | 13.1 | 0.821 | 17.4 | 4.77 | 9.3
Cc1nc2sc(C(=O)Nc3cccc4ccccc34)c(N)c2cc1C(O)c1ccccc1 (configuration not stated) | 0.123 | 9.69 | 0.081 | 19.1 | 0.044 | 1.73 | 0.0373 | 0.968 | 0.28 | > 100 | 0.0595 | 5.74 | 0.174 | 11.2 | 0.29 | 16.9 | 0.0527 | 88.6 | 1.5 | 26.4
Cc1ccc2c(-c3ccnc(Nc4ccccc4)n3)c(-c3ccc(F)cc3)nn2n1 | 4.84 | 20.8 | 19.4 | > 25 | 7.05 | > 25 | 6.64 | > 25 | 8.25 | > 25 | 10.5 | > 25 | 11.1 | > 25 | 7.67 | 17.4 | 7.45 | > 25 | 6.85 | 15.1
C[C@]12CC[C@@H]3c4cc(-c5ccc(F)cc5)c(O)cc4CC[C@H]3[C@@H]1CC[C@@H]2O | 11.9 | 27.7 | 11.2 | 28.3 | 6.49 | 20.9 | 6.95 | 65.9 | 19.1 | 39.2 | 2.78 | 16.5 | 7.29 | 27.8 | 5.81 | 19.8 | 4.52 | 24.6 | 15.3 | 29.6
CC(=O)N1C/C(=C/c2ccc(Cl)cc2)C(=O)/C(=C/c2ccc(Cl)cc2)C1 | 0.575 | 1.87 | 0.516 | 1.25 | 0.255 | 0.676 | 2.56 | 12.6 | 1.68 | 3.45 | 0.0889 | 0.463 | 1.37 | 4.02 | 2.19 | 4.56 | 1.31 | 3.24 | 1.52 | 2.97
NC1CCC(Nc2nc(NCc3ccc(-c4ccccc4O)nc3)c3ncn(C4CCCC4)c3n2)CC1 (configuration not stated) | 0.0293 | 1.06 | 0.0157 | 0.0666 | 0.018 | 0.429 | 0.135 | 2.18 | 0.0322 | 1.38 | < 0.01 | 0.0479 | < 0.01 | 0.344 | 0.0227 | 0.0583 | 0.0252 | 0.0791 | 0.0227 | 0.0729
N#Cc1ccc2c(c1)C(=O)c1c-2n(CCCCl)c(=O)c2cc([N+](=O)[O-])ccc12 | 2.46 | 7.88 | 2.55 | 14 | > 100 | > 100 | 6 | > 100 | 65.4 | > 100 | 3.44 | 20.6 | 1.49 | > 100 | 16.9 | 54.1 | 2.65 | > 100 | > 100 | > 100
CNC(=O)c1ccc(N2C(=S)N(c3ccc(C#N)c(C(F)(F)F)c3)C(=O)C2(C)C)cc1F | > 44.2 | > 73.5 | 25.1 | > 67.2 | 48.1 | > 91.1 | 33.3 | > 100 | > 47.5 | > 92.4 | 24.4 | > 80 | > 52.3 | > 100 | 36.2 | > 71.9 | 27.9 | 97 | 35.1 | > 80.7
COc1ccc(-c2cc(-c3ccc(Cl)cc3)nc(SCCCC(=O)NO)n2)cc1 | 0.594 | 4.52 | 0.902 | 6.66 | 1.44 | 4.12 | 0.314 | 1.28 | 1.37 | 6.92 | 0.771 | > 24.9 | 1.15 | 4.27 | 2.42 | 6.94 | 0.801 | 7.46 | 2.31 | 10.4
COc1ccc(-c2oc(=O)ccc2-c2cc(OC)c(OC)c(OC)c2)cc1O | 2.62 | > 75.7 | 5.37 | > 100 | 0.507 | > 48.7 | 1.48 | > 100 | 12.7 | > 100 | 1.4 | 6.19 | 2.04 | > 72.1 | 2.31 | > 38.7 | 0.553 | > 100 | 9.87 | > 100
